Measurements reported in paper PMC11156899, “High-throughput screening unveils nitazoxanide as a potent PRRSV inhibitor by targeting NMRAL1” (Nature Communications, 2024).
pEC50: −log10 of the molar value.

Tests used:
PRRSV GSWW-15 = experiment: EC50 against GSWW-15 strain on PAM cells; format: cell-based; details: Porcine reproductive and respiratory syndrome virus
Excerpt: (§1) Supplementary Fig. 3: Cytotoxicity and Antiviral Efficacy of NTZ.
(§2) PRRSV capsid protein positive
(§3) (primary antibody SR30, green) and nuclei (DAPI, blue).

PRRSV GSWW-18 strain = experiment: In vivo antiviral effect in swine infected with GSWW-18 strain; set-up: species or system pig; details: for PRRSV dynamics in blood within 24 h: 48 h post infection
[1] = Cytotoxicity assay (CC50) in MARC-145 cells; format: cell-based; details: African green monkey, 48 h of exposure, CCK-8
Excerpt: Control wells contained DMEM with 0.5% DMSO.
as §1, §2, §3

Nsp1α = experiment: Differential scanning fluorimetry, purified Nsp1α; format: binding, PRRSV GSWW-18 strain; details: DSF
Method: For DSF, 20 μM purified NSP1α and NSP12 protein from the GSWW-18 strain, as well as NMRAL1 protein (Accession: A0A0D9R9W0) was thoroughly mixed with 20 μM SYPRO Orange (S6650, Thermo) in a buffer containing 10 mM HEPES and 200 mM NaCl at pH 7.20. An equal volume of 100 μM NTZ, dissolved in the same buffer, was added and the mixture was filtered through a 0.22 μm filter. For controls, an equivalent volume of DMSO was used. […] DSF experiments were monitored using the QuantStudio™ 5 Real-Time PCR System (Thermo). Data were analyzed using DSFworld[42].
Supplementary Fig. 10: The Affinity of Nsp1α and Nsp12 with TIZ is Lower Than That of NMRAL1.
(a) The KD value of NMRAL1 obtained through the Affinity fit model.
(b) The KD value of Nsp1α determined using the Kinetics fit model.
(c) The KD value of Nsp1α obtained through the Affinity fit model.

[2] = test system: PRRSV (VR-2332, GSWW-15, GSWW-18); experiment: Viral titers of VR-2332, GSWW-15 and GSWW-18 in Marc-145 cells; format: cell-based, Porcine Reproductive and Respiratory Syndrome Virus; details: all three strains
Method: Viral solutions were serially diluted by a factor of 10. Samples containing varying concentrations of virus (100 μL each) were combined with DMEM containing 2% FBS (100 μL) and added to wells; control wells were virus-free. […] Relative quantification qRT-PCR was used to assess PRRSV gene expression, normalized using the 2^−ΔΔCt method in Design & Analysis Software (v2.6.0). Absolute quantification qRT-PCR was used for viral copy number detection, with RNA concentration normalization prior to analysis, as described in our previous publication. Primers used included: PRRSV 5′-[…]′ and 5′-[…]-3′; Marc-145-GAPDH 5′-[…]-3′ and 5′-[…]-3′; PAM-GAPDH 5′-[…]-3′ and 5′-[…]-3′; IFNβ 5′-[…]-3′ and 5′-[…]-3′; Human-GAPDH 5′-[…]-3′ and 5′-[…]-3′.
as §1, §2, §3

NMRAL1 = NMRAL1 (Chlorocebus sabaeus, UniProt A0A0D9R9W0); experiment: NMRAL1 dimerization (western blot, in cells and purified protein); format: biochemical; details: in cells and with purified NMRAL1 protein
Sequence of NMRAL1 (A0A0D9R9W0 entry or part of it): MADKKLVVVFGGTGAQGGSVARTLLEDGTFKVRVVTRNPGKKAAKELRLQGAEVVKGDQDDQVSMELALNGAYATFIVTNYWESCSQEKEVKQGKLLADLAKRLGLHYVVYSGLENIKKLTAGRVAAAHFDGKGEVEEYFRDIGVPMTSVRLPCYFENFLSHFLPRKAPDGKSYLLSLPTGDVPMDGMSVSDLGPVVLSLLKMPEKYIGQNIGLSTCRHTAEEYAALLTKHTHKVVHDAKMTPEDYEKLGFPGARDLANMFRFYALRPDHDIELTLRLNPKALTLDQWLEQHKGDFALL
Excerpt: In these proteins, we separately purified the proteins of NSP1α, NSP12, and NMRAL1. […] We speculate that NMRAL1 may be the primary target of NTZ action. […] Previous studies have shown NMRAL1 inhibits retinoic acid-inducible gene I (RIG-I) mediated antiviral responses. NTZ has been reported to activate the RIG-I pathway and induce an increase in IFN-β[25], which our findings corroborate (Fig. 6e–j). […] Differential Scanning Fluorimetry (DSF) confirmed NTZ binding to NMRAL1 (Fig. 6n). […] Molecular dynamics (MD) simulations were conducted for a more accurate understanding of TIZ’s role within the NMRAL1 dimer. Fluctuations or reductions in root-mean-square deviation (RMSD), Rg, and hydrogen bond count data after 80 ns indicated significant changes in the NMRAL1 system (Supplementary Fig. 12 a, b, d). […] TIZ primarily interacted with A chain’s LYS41, LYS42, LYS45, and B chain’s LYS92, LYS89, LYS95, GLN93, LEU96, LYS118, and ARG103, with B chain’s LYS92 and LYS89 and A chain’s LYS41 being the hotspots with binding energies greater than −1 kcal/mol (Supplementary Fig. 13). […]
For Western blot analysis, protein samples were heated at 95 °C for 8 min and then cooled to room temperature. […] The protein signals were detected using a chemiluminescent substrate (34577, Thermo) and visualized using the Gel Doc XR+ molecular imager (Bio-Rad).

PRRSV VR2332 = experiment: EC50 against VR-2332 strain on PAM cells; format: cell-based; details: Porcine reproductive and respiratory syndrome virus
Excerpt: as §1, §2, §3

[3] = treatment group, only 25 mg/kg, P < 0.0001

In the case of `CC(=O)Oc1ccccc1C(=O)Nc1ncc([N+](=O)[O-])s1` [Nitazoxanide], the pEC50 (PRRSV GSWW-15) was ~5.93, the “PRRSV dynamics in blood within 24 h” value (PRRSV GSWW-18 strain; 5 mg/kg oral at 0 h and 12 h) was “viral loads decreased from 2 h to 8 h post administration” and the “PRRSV dynamics in blood within 24 h” value (PRRSV GSWW-18 strain; 10 mg/kg oral at 0 h and 12 h) was “more pronounced inhibition”. For the same compound, the “body temperature and weight” value (PRRSV GSWW-18 strain; 25 mg/kg oral) was “alleviated the rise in body temperature and weight loss”, the “lung PRRSV-positive cells (IHC)” value (PRRSV GSWW-18 strain; 25 mg/kg oral, prophylactic and therapeutic groups, vs MOCK) was “fewer lung PRRSV-positive cells” and the “clinical symptoms by day 7” value (PRRSV GSWW-18 strain; 25 mg/kg, treatment and prophylactic groups) was “no apparent clinical symptoms”. The “interstitial pneumonia with lobar consolidation” value (PRRSV GSWW-18 strain; a specific dose of NTZ, PO BID 3 days) was “significantly mitigated”, the “fatalities within 14 days” value (PRRSV GSWW-18 strain; pig, in vivo) was “no fatalities” and the “PRRSV replication in ManLNs, lungs and tonsils” value (PRRSV GSWW-18 strain; prophylactic and treatment groups, P < 0.0332) was “significantly reduced”. The “PRRSV viral load in blood” value (PRRSV GSWW-18 strain; prophylactic group, 5 mg/kg, P = 0.0033) was “significantly reduced”, the “viral copy numbers in BALF” value (PRRSV GSWW-18 strain; prophylactic group, 10 mg/kg and 25 mg/kg, P < 0.0001) was “significant effects” and the oronasal shedding (PRRSV GSWW-18 strain; prophylactic group, 10 mg/kg, P = 0.0012) was “significantly lowered”. The anal shedding (PRRSV GSWW-18 strain; prophylactic group, even at 25 mg/kg) was “did not reduce”, the “viral copy numbers in BALF” value (PRRSV GSWW-18 strain; [3]) was “achieved statistical significance” and the “virus in ILNs” value (PRRSV GSWW-18 strain; [3]) was “significantly suppressed”. The CC50 at 48 h [1] was ~44000 nM, the “decrease in the Tm value” (Nsp1α) was 3.75 °C and the “relation of concentration to viral titers” value [2] was “negative correlation”. The NMRAL1 dimer formation (NMRAL1) was “increased NMRAL1 dimer formation” and the pEC50 (PRRSV VR2332) was ~6.17.
